The experiment addresses recombinant PDE4 enzyme. Briefly: PDE4 [3H] cAMP Scintillation Proximity Assay (SPA). As to conditions: inhibition of PDE4; 30 nM [3H] cAMP, 1 hr at room temperature, yeast extract of recombinant PDE4 enzyme. Type of experiment: biochemical. The protocol:
Measurement of Phosphodiesterase Activity was done using a [3H] cAMP Scintillation Proximity Assay (SPA) (GE Healthcare). Compounds to be tested were disolved in DMSO at a stock concentration of 1mM and serial dilutions were prepared in 50% DMSO to determine IC50s.
The reactions were conducted in 96-well plates (Corning, Ref.3604) at room temperature, in 0.1 ml of reaction buffer containing (final concentrations): 50 mM Tris-HCl, pH 7.5, 8.3 mM MgCl2, 1.7 mM EGTA, 30 nM [3H] cAMP (approximately 150000 dpm/well) with or without the inhibitors. The reaction was initiated by adding yeast extract of recombinant PDE4 enzyme.
Plates were shaken for 1 hr at room temperature and the incubation was terminated by adding 50 µl (0.5 mg /well) of SPA yttrium silicate beads (RPNQ 0150; GE Healthcare) in the presence of zinc sulfate. Plates were stored overnight in the dark and read on a TRILUX microtiter plate reader (Perkin Elmer).

A word on the IC50: it is the concentration needed to halve the response being measured. As to `CCn1nc(-c2cccc(-c3ccc(CC(=O)NCCN4CCCCC4)cc3)c2)cc(NC(=O)Nc2c(Cl)cncc2Cl)c1=O` [Example 117, 2-(3'-(5-(3-(3,5-dichloropyridin-4-yl)ureido)-1-ethyl-6-oxo-1,6-dihydropyridazin-3-yl)biphenyl-4-yl)-N-(2-(piperidin-1-yl)ethyl)acetamide], the half-maximal inhibitory concentration (IC50) was determined as 0.049 nM.

Consider `CCn1nc(-c2cccc(-c3ccc(CC(=O)NCCCCCCCN(C)CCO)cc3)c2)cc(NC(=O)Nc2c(Cl)cncc2Cl)c1=O` [Example 122, 2-(3'-(5-(3-(3,5-dichloropyridin-4-yl)ureido)-1-ethyl-6-oxo-1,6-dihydropyridazin-3-yl)biphenyl-4-yl)-N-(7-((2-hydroxyethyl)(methyl)amino)heptyl)acetamide], for which the IC50 stood at 0.056 nM.

As to `CCn1nc(-c2cccc(-c3cccc(CC(=O)NCCN4CCCCC4)c3)c2)cc(NC(=O)Nc2c(Cl)cncc2Cl)c1=O` [Example 118, 2-(3'-(5-(3-(3,5-dichloropyridin-4-yl)ureido)-1-ethyl-6-oxo-1,6-dihydropyridazin-3-yl)biphenyl-3-yl)-N-(2-(piperidin-1-yl)ethyl)acetamide], the IC50 stood at 0.1 nM.

Regarding `CCn1nc(-c2cccc(-c3cccc(C(=O)NCCN4CCCCC4)c3)c2)cc(NC(=O)Nc2c(Cl)cncc2Cl)c1=O` [Example 51, 3'-[5-({[(3,5-Dichloropyridin-4-yl)amino]carbonyl}amino)-1-ethyl-6-oxo-1,6-dihydropyridazin-3-yl]-N-(2-piperidin-1-ylethyl)biphenyl-3-carboxamide], the concentration for half-maximal inhibition (IC50) turned out to be 0.104 nM.

As to `CCn1nc(-c2cccc(-c3cc(O)cc(C(=O)NC4CC4)c3)c2)cc(NC(=O)Nc2c(Cl)cncc2Cl)c1=O` [Example 126, N-cyclopropyl-3'-[5-({[(3,5-dichloropyridin-4-yl)amino]carbonyl}amino)-1-ethyl-6-oxo-1,6-dihydropyridazin-3-yl]-5-hydroxybiphenyl-3-carboxamide], the IC50 worked out at 0.076 nM.

Consider `CCn1nc(-c2cccc(-c3cc(F)ccc3O)c2)cc(NC(=O)Nc2c(Cl)cncc2Cl)c1=O` [Example 4, N-(3,5-Dichloropyridin-4-yl)-N'-[2-ethyl-6-(5'-fluoro-2'-hydroxybiphenyl-3-yl)-3-oxo-2,3-dihydropyridazin-4-yl]urea], for which the concentration for half-maximal inhibition (IC50) worked out at 0.237 nM.

For the compound `CCn1nc(-c2cccc(-c3cccc(CC(=O)NC4CC4)c3)c2)cc(NC(=O)Nc2c(Cl)cncc2Cl)c1=O` [Example 127, N-cyclopropyl-2-{3'-[5-({[(3,5-dichloropyridin-4-yl)amino]carbonyl}amino)-1-ethyl-6-oxo-1,6-dihydropyridazin-3-yl]biphenyl-3-yl}acetamide], the IC50 was determined as 0.173 nM.

`CCn1nc(-c2cccc(-c3cccc(C(=O)NCCCN(C)C)c3)c2)cc(NC(=O)Nc2c(Cl)cncc2Cl)c1=O` [Example 22, 3'-[5-({[(3,5-Dichloropyridin-4-yl)amino]carbonyl}amino)-1-ethyl-6-oxo-1,6-dihydropyridazin-3-yl]-N-[3-(dimethylamino)propyl]biphenyl-3-carboxamide]: the IC50 stood at 0.133 nM.

Consider `CCn1nc(-c2cccc(-c3ccc(C(=O)O)cc3)c2)cc(NC(=O)Nc2c(Cl)cncc2Cl)c1=O` [Example 26, 3'-[5-({[(3,5-Dichloropyridin-4-yl)amino]carbonyl}amino)-1-ethyl-6-oxo-1,6-dihydropyridazin-3-yl]biphenyl-4-carboxylic acid], for which the concentration for half-maximal inhibition (IC50) amounted to 0.098 nM.

As to `CCn1nc(-c2cccc(-c3cccc(C(=O)NC4CC4)c3)c2)cc(NC(=O)Nc2c(Cl)cncc2Cl)c1=O` [Example 21, N-Cyclopropyl-3'-[5-({[(3,5-dichloropyridin-4-yl)amino]carbonyl}amino)-1-ethyl-6-oxo-1,6-dihydropyridazin-3-yl]biphenyl-3-carboxamide], the 50% inhibitory concentration (IC50) worked out at 0.127 nM.

`CCn1nc(-c2cccc(-c3cccc(C(=O)NCCN(C)C)c3)c2)cc(NC(=O)Nc2c(Cl)cncc2Cl)c1=O` [Example 17, 3'-[5-({[(3,5-Dichloropyridin-4-yl)amino]carbonyl}amino)-1-ethyl-6-oxo-1,6-dihydropyridazin-3-yl]-N-[2-(dimethylamino)ethyl]biphenyl-3-carboxamide]: the concentration for half-maximal inhibition (IC50) was 0.047 nM.

`CCn1nc(-c2cccc(-c3cc(O)cc(C(=O)NCCCCCCCN(C)CCO)c3)c2)cc(NC(=O)Nc2c(Cl)cncc2Cl)c1=O` [Example 124, 3'-(5-(3-(3,5-dichloropyridin-4-yl)ureido)-1-ethyl-6-oxo-1,6-dihydropyridazin-3-yl)-5-hydroxy-N-(7-((2-hydroxyethyl)(methyl)amino)heptyl)biphenyl-3-carboxamide]: the IC50 came to 0.037 nM.

As for `CCn1nc(-c2cccc(-c3cccc(C(=O)NCCCCCCCN(C)CCO)c3)c2)cc(NC(=O)Nc2c(Cl)cncc2Cl)c1=O` [Example 120, 3'-(5-(3-(3,5-dichloropyridin-4-yl)ureido)-1-ethyl-6-oxo-1,6-dihydropyridazin-3-yl)-N-(7-((2-hydroxyethyl)(methyl)amino)heptyl)biphenyl-3-carboxamide], the IC50 is 0.031 nM.

As for `CCn1nc(-c2cccc(-c3cccc(C(=O)NCc4ccc(O)cc4)c3)c2)cc(NC(=O)Nc2c(Cl)cncc2Cl)c1=O` [Example 138, 3'-[5-({[(3,5-dichloropyridin-4-yl)amino]carbonyl}amino)-1-ethyl-6-oxo-1,6-dihydropyridazin-3-yl]-N-(4-hydroxybenzyl)biphenyl-3-carboxamide], the IC50 was 0.391 nM.

As to `CCn1nc(-c2cccc(-c3cccc(CC(=O)NCCN4CCOCC4)c3)c2)cc(NC(=O)Nc2c(Cl)cncc2Cl)c1=O` [Example 119, 2-(3'-(5-(3-(3,5-dichloropyridin-4-yl)ureido)-1-ethyl-6-oxo-1,6-dihydropyridazin-3-yl)biphenyl-3-yl)-N-(2-morpholinoethyl)acetamide], the 50% inhibitory concentration (IC50) worked out at 0.061 nM.

Source of the values: EP2196465A1, “(3-oxo)pyridazin-4-ylurea derivatives as PDE4 inhibitors” (Almirall, S.A., priority 2008, dated 2010).
